In US20240083857A1, “2-Methyl-Quinazolines” (Bayer Pharma Aktiengesellschaft, priority 2017, published 2024) one finds IC50 and inhibition data, which are given here for 24 molecules.

The target of experiment [1] is human SOS1 (nucleotide exchange of K-Ras^G12C) (Homo sapiens, UniProt Q07889). Description: Biochemical assay 2: K-Ras^G12C activation assay by hSOS1 at high GTP concentration (HTRF). The following applies: high GTP; for IC50: read-out: Assay 2 (KRAS-Activation by SOS high GTP) activity expressed as IC50; for inhibition at 20 µM: read-out: Assay 2 (KRAS-Activation by SOS high GTP) activity expressed as % inhibition at 20 μM. Background: In TR-FRET formats the signal depends on donor and acceptor labels being close together.

For experiment [2], the target named is human SOS1 (loading of human K-Ras^G12C-GDP with fluorescent GTP-analog) (Homo sapiens, UniProt Q07889). Description: Biochemical assay 3: K-Ras^G12C activation assay by hSOS1 (HTRF). The conditions noted are these: no GTP; for IC50: read-out: Assay 3 (KRAS-Activation by SOS no GTP) activity expressed as IC50; for inhibition at 20 µM: read-out: Assay 3 (KRAS-Activation by SOS no GTP) activity expressed as % inhibition at 20 μM.

SMILES strings stand for the structures.

As a reminder, the IC50 is the concentration that gives 50% inhibition. In the case of `COc1cc2nc(C)nc(N[C@H](C)c3ccc(C4CC4)cc3)c2cc1OC` [Example 197, N-[(1R)-1-(4-cyclopropylphenyl)ethyl]-6,7-dimethoxy-2-methylquinazolin-4-amine], the IC50 is 303 nM in experiment [1] and 638 nM in experiment [2].
The like results for `COc1cc2nc(C)nc(N[C@H](C)c3cccc(S(C)(=O)=O)c3)c2cc1OC` [Example 198, 6,7-dimethoxy-2-methyl-N-{(1R)-1-[3-(methylsulfonyl)phenyl]ethyl}quinazolin-4-amine] were, in that order, 518 nM and 1090 nM.
The matching figures for `COc1cc2nc(C)nc(N[C@H](C)c3cccc(C(N)=O)c3)c2cc1OC` [Example 199, 3-{(1R)-1-[(6,7-dimethoxy-2-methylquinazolin-4-yl)amino]ethyl}benzamide]: 1420 nM and 6700 nM.
The inhibition is the percentage by which the read-out fell short of the control. Consider `COc1cc2nc(C)nc(N[C@H](C)c3ccc(C4=CCN(C)CC4)cc3)c2cc1OC` [Example 201, 6,7-dimethoxy-2-methyl-N-{(1R)-1-[4-(1-methyl-1,2,3,6-tetrahydropyridin-4-yl)phenyl]ethyl}quinazolin-4-amine], for which the inhibition at 20 µM in experiment [1] amounted to 20%; in experiment [2] it was 50%.
Regarding `COc1cc2nc(C)nc(N[C@H](C)c3cccc(C4=CCN(C)CC4)c3)c2cc1OC` [Example 202, 6,7-dimethoxy-2-methyl-N-{(1R)-1-[3-(1-methyl-1,2,3,6-tetrahydropyridin-4-yl)phenyl]ethyl}quinazolin-4-amine], the half-inhibitory concentration (IC50) in experiment [1] turned out to be 979 nM; in experiment [2], 5320 nM.
The matching figures for `C=C(C)c1ccc([C@@H](C)Nc2nc(C)nc3cc(OC)c(OC)cc23)cc1` [Example 203, 6,7-dimethoxy-2-methyl-N-{(1R)-1-[4-(prop-1-en-2-yl)phenyl]ethyl}quinazolin-4-amine]: 1380 nM and 3360 nM.
Consider `COc1cc2nc(C)nc(N[C@H](C)c3cccc(C4CC4)c3)c2cc1OC` [Example 204, N-[(1R)-1-(3-cyclopropylphenyl)ethyl]-6,7-dimethoxy-2-methylquinazolin-4-amine], for which the results for the IC50 in experiment [1] and in experiment [2] were 265 nM and 640 nM, respectively.
The like results for `COc1cc2nc(C)nc(NC(C)c3cccc4sccc34)c2cc1OC` (stereo not drawn) [Example 205, N-[1-(1-benzothiophen-4-yl)ethyl]-6,7-dimethoxy-2-methylquinazolin-4-amine] were, in that order, 87.2 nM and 126 nM.
For the molecule `COc1cc2nc(C)nc(N[C@H](C)c3ccccc3)c2cc1OC` [Example 206, 6,7-dimethoxy-2-methyl-N-[(1R)-1-phenylethyl]quinazolin-4-amine], the values for the IC50 in experiment [1] and in experiment [2] were 1000 nM and 1750 nM, respectively.
The like results for `COc1cc2nc(C)nc(NC(C)c3cccs3)c2cc1OC` (stereo not drawn) [Example 207, 6,7-dimethoxy-2-methyl-N-[1-(thiophen-2-yl)ethyl]quinazolin-4-amine] were, in that order, 2270 nM and 12300 nM.
The matching figures for `COc1cc2nc(C)nc(NC(C)c3ccc(-c4ccccc4CN4CCC(O)C4)s3)c2cc1OC` (stereo not drawn) [Example 210, 1-[2-(5-{1-[(6,7-dimethoxy-2-methylquinazolin-4-yl)amino]ethyl}thiophen-2-yl)benzyl]pyrrolidin-3-ol]: 109 nM and 100 nM.
As for `COc1cc2nc(C)nc(NC(C)c3ccc(-c4ccccc4CN4CC[C@H](F)C4)s3)c2cc1OC` (stereo partly drawn) [Example 211, N-{1-[5-(2-{[(3S)-3-fluoropyrrolidin-1-yl]methyl}phenyl)thiophen-2-yl]ethyl}-6,7-dimethoxy-2-methylquinazolin-4-amine], the half-maximal inhibitory concentration (IC50) in experiment [1] came out at 292 nM; in experiment [2] it was 233 nM.
With `COc1cc2nc(C)nc(NC(C)c3ccc(-c4ccccc4)o3)c2cc1OC` (stereo not drawn) [Example 213, 6,7-dimethoxy-2-methyl-N-[1-(5-phenylfuran-2-yl)ethyl]quinazolin-4-amine], the IC50 in experiment [1] amounted to 6310 nM. Also, the inhibition at 20 µM in experiment [2] turned out to be 42%.
For `COc1cc2nc(C)nc(NC(C)c3cc(Br)cc4c3OCC4)c2cc1OC` (stereo not drawn) [Example 214, N-[1-(5-bromo-2,3-dihydro-1-benzofuran-7-yl)ethyl]-6,7-dimethoxy-2-methylquinazolin-4-amine], the IC50 in experiment [1] came to 3960 nM; in experiment [2], 13600 nM.
As for `COc1cc2nc(C)nc(NC(C)c3cccc(Oc4ccccc4)c3)c2cc1OC` (stereo not drawn) [Example 215, 6,7-dimethoxy-2-methyl-N-[1-(3-phenoxyphenyl)ethyl]quinazolin-4-amine], the values for the concentration for half-maximal inhibition (IC50) in experiment [1] and in experiment [2] were 1160 nM and 2950 nM, respectively.
With `COc1cc2nc(C)nc(NC(C)c3cccc(-c4nn[nH]n4)c3)c2cc1OC` (stereo not drawn) [Example 216, 6,7-dimethoxy-2-methyl-N-{1-[3-(2H-tetrazol-5-yl)phenyl]ethyl}quinazolin-4-amine], the IC50 turned out to be 17000 nM in experiment [1] and 16100 nM in experiment [2].
`COc1cc2nc(C)nc(NC(C)c3cccc4cccnc34)c2cc1OC` (stereo not drawn) [Example 217, 6,7-dimethoxy-2-methyl-N-[1-(quinolin-8-yl)ethyl]quinazolin-4-amine]: the inhibition at 20 µM in experiment [1] was 50%; in experiment [2], 45%.
`COc1cc2nc(C)nc(NC(C)c3ccc(-c4cnn(CCO)c4)s3)c2cc1OC` (stereo not drawn) [Example 218, 2-[4-(5-{1-[(6,7-dimethoxy-2-methylquinazolin-4-yl)amino]ethyl}thiophen-2-yl)-1H-pyrazol-1-yl]ethanol]: the IC50 in experiment [1] was determined as 1370 nM; in experiment [2], 3780 nM.
The matching figures for `COc1cc2nc(C)nc(NC(C)c3ccc(-c4cnc5n4CCC5)s3)c2cc1OC` (stereo not drawn) [Example 219, N-{1-[5-(6,7-dihydro-5H-pyrrolo[1,2-a]imidazol-3-yl)thiophen-2-yl]ethyl}-6,7-dimethoxy-2-methylquinazolin-4-amine]: 570 nM and 908 nM.
The like results for `COc1cc2nc(C)nc(NC(C)c3ccc(-c4cnn(CCN5CCCC5)c4)s3)c2cc1OC` (stereo not drawn) [Example 220, 6,7-dimethoxy-2-methyl-N-[1-(5-{1-[2-(pyrrolidin-1-yl)ethyl]-1H-pyrazol-4-yl}thiophen-2-yl)ethyl]quinazolin-4-amine] were, in that order, 381 nM and 1010 nM.
Turning to `COc1cc2nc(C)nc(NC(C)c3ccc(-c4cnn(C5CCCC5)c4)s3)c2cc1OC` (stereo not drawn) [Example 221, N-{1-[5-(1-cyclopentyl-1H-pyrazol-4-yl)thiophen-2-yl]ethyl}-6,7-dimethoxy-2-methylquinazolin-4-amine], the IC50 turned out to be 4650 nM in experiment [1] and 4810 nM in experiment [2].
The like results for `COc1cc2nc(C)nc(NC(C)c3ccc(-c4cc[nH]n4)s3)c2cc1OC` (stereo not drawn) [Example 222, 6,7-dimethoxy-2-methyl-N-{1-[5-(1H-pyrazol-3-yl)thiophen-2-yl]ethyl}quinazolin-4-amine] were, in that order, 4440 nM and 13500 nM.
The like results for `COc1cc2nc(C)nc(NC(C)c3ccc(-c4ccccc4CN4CCC(F)(F)C4)s3)c2cc1OC` (stereo not drawn) [Example 223, N-[1-(5-{2-[(3,3-difluoropyrrolidin-1-yl)methyl]phenyl}thiophen-2-yl)ethyl]-6,7-dimethoxy-2-methylquinazolin-4-amine] were, in that order, 5600 nM and 7180 nM.
As to `COc1cc2nc(C)nc(NC(C)c3ccc4nsnc4c3)c2cc1OC` (stereo not drawn) [Example 229, N-[1-(2,1,3-benzothiadiazol-5-yl)ethyl]-6,7-dimethoxy-2-methylquinazolin-4-amine], the IC50 in experiment [1] is 7820 nM. Further, the inhibition at 20 µM in experiment [2] was found to be 29%.
